Assays:
[1] = target: T1, Muscarinic acetylcholine receptor (Rattus norvegicus) (UniProt P08482+P08483+P08485+P08911+P10980); conditions: 1.0 uM
[2] = target: T1, Muscarinic acetylcholine receptor (Rattus norvegicus); conditions: 0.1 uM
[3] = target: T2, Muscarinic acetylcholine receptor M2 (Rattus norvegicus, UniProt P10980); test: biochemical
T2 sequence (P10980 whole entry): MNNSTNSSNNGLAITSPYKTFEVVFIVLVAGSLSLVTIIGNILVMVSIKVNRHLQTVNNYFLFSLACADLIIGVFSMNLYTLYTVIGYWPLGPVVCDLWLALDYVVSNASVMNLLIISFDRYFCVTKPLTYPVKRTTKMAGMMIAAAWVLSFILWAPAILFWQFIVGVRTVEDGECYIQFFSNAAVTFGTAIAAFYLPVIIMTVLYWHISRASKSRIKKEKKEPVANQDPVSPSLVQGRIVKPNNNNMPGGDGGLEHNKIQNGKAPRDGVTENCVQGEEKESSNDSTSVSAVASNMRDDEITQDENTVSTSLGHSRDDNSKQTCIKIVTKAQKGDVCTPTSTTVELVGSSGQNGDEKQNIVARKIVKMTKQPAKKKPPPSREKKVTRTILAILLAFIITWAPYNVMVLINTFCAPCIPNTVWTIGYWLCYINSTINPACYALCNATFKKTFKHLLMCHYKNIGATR
Description: Compound was evaluated for the displacement of the muscarinic QNB in rat heart homogenate containing the pharmacologic M2 receptor (M2-QNB heart)

SK-N-SH [4] = tested on: SK-N-SH
[5] = target: T3, Muscarinic acetylcholine receptor M1 (Rattus norvegicus, UniProt P08482)
T3 sequence (P08482 whole entry): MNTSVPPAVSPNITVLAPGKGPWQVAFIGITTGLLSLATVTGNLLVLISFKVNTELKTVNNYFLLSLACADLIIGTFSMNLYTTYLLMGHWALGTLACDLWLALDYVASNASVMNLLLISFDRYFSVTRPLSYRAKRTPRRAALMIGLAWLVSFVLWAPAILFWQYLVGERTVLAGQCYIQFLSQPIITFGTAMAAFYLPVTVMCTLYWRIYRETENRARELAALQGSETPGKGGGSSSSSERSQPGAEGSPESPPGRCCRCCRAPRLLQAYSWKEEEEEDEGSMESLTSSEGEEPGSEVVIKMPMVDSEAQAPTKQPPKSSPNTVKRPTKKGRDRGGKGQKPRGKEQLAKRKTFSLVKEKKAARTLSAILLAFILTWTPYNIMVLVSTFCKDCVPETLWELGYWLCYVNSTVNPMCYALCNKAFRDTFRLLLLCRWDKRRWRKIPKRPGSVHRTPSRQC
Description: Compound was evaluated for the displacement of the muscarinic QNB in a genetically transformed rat cell line (m1c2) transfected with cloned m1 receptors (m1-QNBm1c2)

[6] = target: Muscarinic acetylcholine receptor
Description: Compound was evaluated for its ability to displace muscarinic agonist [3H]quinuclidinyl benzilate in rat cortical tissue (RCMD binding assay), at 0.1 uM concentration

[7] = target: Muscarinic acetylcholine receptor; remark: listed apart in the source
Description: Compound was evaluated for its ability to displace muscarinic antagonist [3H]cis-methyldioxolane in rat cortical tissue (RQNB binding assay), at 1.0 uM concentration

SK-N-SH [8] = test: Phosphoinositide (PI) turnover was assessed by the ability to stimulate [3H]- inositol phosphate accumulation in human SK-N-SH neuroblastoma cells relative to carbachol; assay type: functional

**Q.** How did the inhibition [1] turn out when CCCN1C(=O)OC[C@@H]1Cc1c[nH]cn1 was run?
**A.** Its inhibition is 4%.

**Q.** What about the inhibition [2] of the same compound?
**A.** The inhibition was 2%.

**Q.** What does the source list for CCN1C(=O)OC[C@@H]1Cc1c[nH]cn1?
**A.** inhibition [1]: 4%; inhibition [2]: 4%

**Q.** CCN1C(=O)OC[C@H]1Cc1cncn1C was tested. Which inhibition [1] did it give?
**A.** Its inhibition is 0%.

**Q.** What about the inhibition [2] of the same compound?
**A.** Its inhibition is 6%.

**Q.** With O=C1CCCN1CC#CCN1CCCC1 [OXOTREMORINE] as the compound, how does the IC50 [3] read?
**A.** Its IC50 is 0.86 µM.

**Q.** And the PI turnover (SK-N-SH [4])?
**A.** Its PI turnover is 33%.

**Q.** What about the IC50 [5] of the same compound?
**A.** The IC50 was 0.36 µM.

**Q.** Which inhibition [1] does the source give for CCN1C(=O)OC[C@H]1Cc1cn(C)cn1 here?
**A.** The inhibition was 1%.

**Q.** What about the inhibition [2] of the same compound?
**A.** Its inhibition is 0%.

**Q.** For C[N+](C)(C)CCOC(N)=O.[Cl-] [CARBACHOL], which PI turnover (SK-N-SH [4]) is on record?
**A.** The PI turnover was 100%.

**Q.** What does the source list for CN1C(=O)OC[C@@H]1Cc1cncn1C?
**A.** inhibition [1]: 2%; inhibition [2]: 11%

**Q.** How did the inhibition [1] turn out when CN1C(=O)OC[C@@H]1Cc1c[nH]cn1 was run?
**A.** The inhibition was 0%.

**Q.** What about the inhibition [2] of the same compound?
**A.** Its inhibition is 0%.

**Q.** What does the source list for CCCN1C(=O)OC[C@@H]1Cc1cn(C)cn1?
**A.** inhibition [1]: 10%; inhibition [2]: 2%

**Q.** With CCN1C(=O)OC[C@H]1Cc1c[nH]cn1 as the compound, how does the inhibition [1] read?
**A.** The inhibition was 2%.

**Q.** And the inhibition [2]?
**A.** Its inhibition is 0%.

**Q.** CCCN1C(=O)OC[C@@H]1Cc1cncn1C was tested. Which IC50 [6] did it give?
**A.** Its IC50 is 73 µM.

**Q.** What about the IC50 [7] of the same compound?
**A.** Its IC50 is 3300 µM.

**Q.** What does the source list for CCN1C(=O)OC[C@@H]1Cc1cncn1C?
**A.** IC50 [3]: 30.9 µM; IC50 [6]: 0.043 µM; IC50 [7]: 8.9 µM; PI turnover (SK-N-SH [8]): 16%; IC50 [5]: 12.7 µM
